Test results from PubChem BioAssay (NCI).
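Method: 48-hour compound exposure of cells in 96-well plates, five concentrations, linear interpolation of endpoints. Abbreviation: GI50, concentration required for 50% inhibition of growth. TGI denotes the concentration required for complete inhibition of growth.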

Columns and labels:
Assay in all cases: DTP human tumour cell line panel, 48 h
[1] = system: SNB-19 CNS
[2] = system: OVCAR-8 ovarian
[3] = system: CAKI-1 renal
[4] = system: SK-MEL-28 melanoma
[5] = system: HL-60(TB) leukemia
[6] = system: NCI-H23 lung
[7] = system: IGROV1 ovarian
[8] = system: NCI-H522 lung
[9] = system: SN12C renal
[10] = system: MDA-MB-435

## COC(=O)c1ccc(N/C=C(/C#N)c2ccsc2)cc1
[1]
  TGI: 29.8 µM
[2]
  TGI: 19.5 µM
[3]
  TGI: 30.5 µM
[4]
  TGI: 45.6 µM
[5]
  TGI: > 100 µM
[6]
  TGI: 24.5 µM
[7]
  TGI: 65.2 µM

## CNC(=O)NCCCCC(NC(=O)OCc1ccccc1)C(=O)OCc1ccccc1 (configuration not stated)
[1]
  TGI: > 100 µM
[2]
  TGI: 67.2 µM
[3]
  TGI: 48.6 µM
[4]
  TGI: 60.6 µM
[5]
  TGI: 32.4 µM
[6]
  TGI: 67.4 µM
[7]
  TGI: 76.4 µM
[8]
  TGI: 28.3 µM
[9]
  TGI: 51.1 µM

## COc1ccc(/C=N/C2=NNC(C)(c3ccccc3O)N2C(Cc2c[nH]c3ccccc23)C(=O)O)cc1 (configuration not stated)
[1]
  GI50: 3.76 µM
  TGI: 14.6 µM
[2]
  GI50: 3.23 µM
  TGI: 16 µM
[10]
  GI50: 1.7 µM
  TGI: 5.68 µM
[4]
  GI50: 2.67 µM
  TGI: 8.41 µM
[5]
  GI50: 2.28 µM
  TGI: 8.9 µM
[6]
  GI50: 2.28 µM
  TGI: 8.61 µM
[7]
  GI50: 1.72 µM
  TGI: 9.5 µM
[8]
  GI50: 2.49 µM
  TGI: 10 µM
[9]
  GI50: 3.11 µM
  TGI: 11.3 µM

## CC1=C(C(=O)NCc2ccccc2)C(c2ccc(N(C)C)cc2)C(C(=O)NCc2ccccc2)=C(C)N1
[1]
  TGI: > 100 µM
[2]
  TGI: > 100 µM
[3]
  TGI: > 100 µM
[4]
  TGI: > 100 µM
[5]
  TGI: > 100 µM
[6]
  TGI: > 100 µM
[7]
  TGI: > 100 µM
[8]
  TGI: > 100 µM
[9]
  TGI: > 100 µM

## NC(CCSCCF)C(=O)O (configuration not stated)
[1]
  TGI: > 100 µM
[3]
  TGI: > 100 µM
[4]
  TGI: > 100 µM
[5]
  TGI: > 100 µM
[6]
  TGI: > 100 µM
[7]
  TGI: > 100 µM
[8]
  TGI: > 100 µM
[9]
  TGI: > 100 µM

## C=CC(=O)OCCCS(=O)(=O)[O-].C=CC(=O)OCCCS(=O)(=O)[O-].NC1CCCCC1N.[Pt+4]
[1]
  GI50: > 25 µM
  TGI: > 25 µM
[2]
  GI50: > 25 µM
  TGI: > 25 µM
[3]
  GI50: > 25 µM
  TGI: > 25 µM
[4]
  GI50: > 25 µM
  TGI: > 25 µM
[5]
  GI50: > 25 µM
  TGI: > 25 µM
[6]
  GI50: > 25 µM
  TGI: > 25 µM
[7]
  GI50: > 25 µM
  TGI: > 25 µM
[8]
  GI50: > 25 µM
  TGI: > 25 µM
[9]
  GI50: > 25 µM
  TGI: > 25 µM

## COc1ccc(C2C(C(=O)O)=C(CO)Oc3cc4c(cc32)OCO4)c(OC)c1 (configuration not stated)
[1]
  TGI: > 100 µM
[2]
  TGI: > 100 µM
[3]
  TGI: > 100 µM
[4]
  TGI: > 100 µM
[5]
  TGI: > 100 µM
[6]
  TGI: > 100 µM
[7]
  TGI: > 100 µM
[9]
  TGI: > 100 µM

## O=C1c2ccccc2-c2c1c1ccc3ccccc3c1n2-c1ccccc1
[1]
  GI50: 25.7 µM
  TGI: 59.1 µM
[2]
  GI50: 23 µM
  TGI: 54.7 µM
[10]
  GI50: 97.9 µM
  TGI: > 100 µM
[3]
  GI50: 22 µM
  TGI: 40.9 µM
[4]
  GI50: > 100 µM
  TGI: > 100 µM
[6]
  GI50: 56.8 µM
  TGI: > 100 µM
[7]
  GI50: 29.7 µM
  TGI: > 100 µM
[8]
  GI50: 53.1 µM
  TGI: > 100 µM
[9]
  GI50: 20.5 µM
  TGI: 50 µM

## O=C(CC(=O)c1cccc2ccccc12)C(=O)Nc1nccs1
[2]
  TGI: > 100 µM
[3]
  TGI: > 100 µM
[4]
  TGI: > 100 µM
[5]
  TGI: > 100 µM
[6]
  TGI: > 100 µM
[7]
  TGI: > 100 µM
[8]
  TGI: > 100 µM
[9]
  TGI: > 100 µM

## CCOC(=O)C1=C(Nc2cccc3ccccc23)OCC1=O
[1]
  TGI: > 100 µM
[2]
  TGI: > 100 µM
[3]
  TGI: > 100 µM
[4]
  TGI: > 100 µM
[6]
  TGI: > 100 µM
[7]
  TGI: > 100 µM
[8]
  TGI: > 100 µM
[9]
  TGI: > 100 µM

## C#CCOCn1cnc2c(N)ncnc21
[1]
  TGI: > 100 µM
[2]
  TGI: > 100 µM
[3]
  TGI: > 100 µM
[4]
  TGI: > 100 µM
[6]
  TGI: > 100 µM
[7]
  TGI: > 100 µM
[8]
  TGI: > 100 µM
[9]
  TGI: > 100 µM

## O=c1c2cc(Br)ccc2n(C2OC(CO)C(O)C(O)C2O)c(=S)n1-c1ccccc1 (configuration not stated)
[1]
  TGI: > 100 µM
[2]
  TGI: > 100 µM
[4]
  TGI: > 100 µM
[5]
  TGI: > 100 µM
[6]
  TGI: > 100 µM
[7]
  TGI: > 100 µM
[8]
  TGI: > 100 µM
[9]
  TGI: > 100 µM

## CC1=CC[C@@H]2C(=O)C=CC=C[C@H]12.[C-]#[O+].[C-]#[O+].[C-]#[O+].[Fe]
[1]
  GI50: > 100 µM
  TGI: > 100 µM
[2]
  GI50: > 100 µM
  TGI: > 100 µM
[4]
  GI50: > 100 µM
  TGI: > 100 µM
[5]
  GI50: > 100 µM
  TGI: > 100 µM
[6]
  GI50: > 100 µM
  TGI: > 100 µM
[8]
  GI50: 9.81 µM
  TGI: > 100 µM
[9]
  GI50: > 100 µM
  TGI: > 100 µM

## CCSc1nnc(-c2ccc3ccccc3c2O)n1-c1ccccc1
[4]
  GI50: > 100 µM
  TGI: > 100 µM
[5]
  GI50: > 100 µM
  TGI: > 100 µM
[6]
  GI50: > 100 µM
  TGI: > 100 µM
[7]
  GI50: 7.59 µM
  TGI: > 100 µM
[8]
  GI50: 4.27 µM
  TGI: > 100 µM
[9]
  GI50: > 100 µM
  TGI: > 100 µM

## Cc1c(-c2cc(-c3ccccc3)n[nH]c2=O)c2ccccc2n1C
[1]
  TGI: > 100 µM
[2]
  TGI: > 100 µM
[3]
  TGI: > 100 µM
[4]
  TGI: > 100 µM
[5]
  TGI: > 100 µM
[6]
  TGI: > 100 µM
[7]
  TGI: > 100 µM
[8]
  TGI: > 100 µM
[9]
  TGI: > 100 µM

## CC(C)=CC1(C)/C(=N\O)C(C)(CC(C)C)C(=O)N1O (configuration not stated)
[1]
  TGI: > 100 µM
[2]
  TGI: > 100 µM
[3]
  TGI: > 100 µM
[4]
  TGI: > 100 µM
[5]
  TGI: > 100 µM
[6]
  TGI: > 100 µM
[7]
  TGI: > 100 µM
[8]
  TGI: > 100 µM
[9]
  TGI: > 100 µM

## Cc1nc2sc(C(=O)Nc3cccc(Cl)c3C)c(N)c2cc1C(O)c1ccccc1 (configuration not stated)
[1]
  GI50: 0.0604 µM
  TGI: 29.1 µM
[2]
  GI50: 0.0512 µM
  TGI: 35.3 µM
[3]
  GI50: 0.0487 µM
  TGI: 8.46 µM
[4]
  GI50: 1.6 µM
  TGI: 23.1 µM
[5]
  GI50: 0.0289 µM
  TGI: 0.133 µM
[6]
  GI50: 0.0634 µM
  TGI: 12.9 µM
[7]
  GI50: 0.0532 µM
  TGI: 12.7 µM
[8]
  GI50: 0.0278 µM
  TGI: 1.77 µM
[9]
  GI50: 0.067 µM
  TGI: 6.73 µM

## CCCCCCCCCCCc1cc(=O)c2c(O)cccc2o1
[1]
  TGI: > 100 µM
[2]
  TGI: > 100 µM
[3]
  TGI: > 100 µM
[4]
  TGI: > 100 µM
[5]
  TGI: > 100 µM
[6]
  TGI: > 100 µM
[7]
  TGI: > 100 µM
[8]
  TGI: > 100 µM
[9]
  TGI: > 100 µM

## COc1ccccc1NC(=O)C1=C(C)NC(C)=C(C(=O)Nc2ccccc2OC)C1c1ccc(C2C(C(=O)Nc3ccccc3OC)=C(C)NC(C)=C2C(=O)Nc2ccccc2OC)cc1
[1]
  TGI: 12.5 µM
[2]
  TGI: 7.52 µM
[3]
  TGI: 11.3 µM
[4]
  TGI: 6.45 µM
[5]
  TGI: 5.96 µM
[6]
  TGI: 7.52 µM
[7]
  TGI: 3.89 µM
[8]
  TGI: 3.52 µM
[9]
  TGI: 3.69 µM
